Results published in the CheMixHub viscosity set.

Test: xn = mol fraction of the nth substance listed

CCCCCCCCCCCCCC + CCCCCCC
101 kPa, x2 = 0.5
Conditions | viscosity [mPa·s]
298 K | 1.031
318 K | 0.7754

CCCCCO + C1CCCCC1
Conditions | viscosity [mPa·s]
293.15 K, 100 kPa, x2 = 0.0815 | 3.56
293.15 K, 100 kPa, x2 = 0.1623 | 3.17
293.15 K, 100 kPa, x2 = 0.2416 | 2.81
293.15 K, 100 kPa, x2 = 0.3481 | 2.37
293.15 K, 100 kPa, x2 = 0.4401 | 2.06
293.15 K, 100 kPa, x2 = 0.5592 | 1.69
293.15 K, 100 kPa, x2 = 0.6501 | 1.46
293.15 K, 100 kPa, x2 = 0.7414 | 1.28
293.15 K, 100 kPa, x2 = 0.8502 | 1.1
293.15 K, 100 kPa, x2 = 0.9414 | 1.02
298.15 K, 101 kPa, x1 = 0.0229 | 0.889
298.15 K, 101 kPa, x1 = 0.0543 | 0.908
298.15 K, 101 kPa, x1 = 0.14 | 0.991
298.15 K, 101 kPa, x1 = 0.2319 | 1.064
298.15 K, 101 kPa, x1 = 0.3975 | 1.326
298.15 K, 101 kPa, x1 = 0.5045 | 1.548
298.15 K, 101 kPa, x1 = 0.6384 | 1.974
298.15 K, 101 kPa, x1 = 0.7129 | 2.264
298.15 K, 101 kPa, x1 = 0.8283 | 2.738
298.15 K, 101 kPa, x1 = 0.904 | 3.066
303.15 K, 100 kPa, x2 = 0.0815 | 2.7
303.15 K, 100 kPa, x2 = 0.1623 | 2.41
303.15 K, 100 kPa, x2 = 0.2416 | 2.15
303.15 K, 100 kPa, x2 = 0.3481 | 1.84
303.15 K, 100 kPa, x2 = 0.4401 | 1.61
303.15 K, 100 kPa, x2 = 0.5592 | 1.34
303.15 K, 100 kPa, x2 = 0.6501 | 1.18
303.15 K, 100 kPa, x2 = 0.7414 | 1.05
303.15 K, 100 kPa, x2 = 0.8502 | 0.92
303.15 K, 100 kPa, x2 = 0.9414 | 0.85
303.15 K, 101 kPa, x1 = 0.6491 | 1.531
303.15 K, 101.33 kPa, x1 = 0.0977 | 0.8877
303.15 K, 101.33 kPa, x1 = 0.2165 | 0.9922
303.15 K, 101.33 kPa, x1 = 0.3008 | 1.095
303.15 K, 101.33 kPa, x1 = 0.4012 | 1.222
303.15 K, 101.33 kPa, x1 = 0.5004 | 1.388
303.15 K, 101.33 kPa, x1 = 0.6025 | 1.586
303.15 K, 101.33 kPa, x1 = 0.7049 | 1.823
303.15 K, 101.33 kPa, x1 = 0.7922 | 2.076
303.15 K, 101.33 kPa, x1 = 0.9023 | 2.447
308.15 K, 101 kPa, x1 = 0.0229 | 0.757
308.15 K, 101 kPa, x1 = 0.0543 | 0.772
308.15 K, 101 kPa, x1 = 0.14 | 0.822
308.15 K, 101 kPa, x1 = 0.2319 | 0.894
308.15 K, 101 kPa, x1 = 0.3975 | 1.078
308.15 K, 101 kPa, x1 = 0.5045 | 1.248
308.15 K, 101 kPa, x1 = 0.6384 | 1.537
308.15 K, 101 kPa, x1 = 0.6491 | 1.452
308.15 K, 101 kPa, x1 = 0.7129 | 1.732
308.15 K, 101 kPa, x1 = 0.8283 | 2.09
308.15 K, 101 kPa, x1 = 0.904 | 2.335
313.15 K, 100 kPa, x2 = 0.0815 | 2.08
313.15 K, 100 kPa, x2 = 0.1623 | 1.88
313.15 K, 100 kPa, x2 = 0.2416 | 1.7
313.15 K, 100 kPa, x2 = 0.3481 | 1.47
313.15 K, 100 kPa, x2 = 0.4401 | 1.3
313.15 K, 100 kPa, x2 = 0.5592 | 1.11
313.15 K, 100 kPa, x2 = 0.6501 | 0.98
313.15 K, 100 kPa, x2 = 0.7414 | 0.88
313.15 K, 100 kPa, x2 = 0.8502 | 0.78
313.15 K, 100 kPa, x2 = 0.9414 | 0.72
313.15 K, 101 kPa, x1 = 0.6491 | 1.327
318.15 K, 101 kPa, x1 = 0.0229 | 0.649
318.15 K, 101 kPa, x1 = 0.0543 | 0.658
318.15 K, 101 kPa, x1 = 0.14 | 0.694
318.15 K, 101 kPa, x1 = 0.2319 | 0.758
318.15 K, 101 kPa, x1 = 0.3975 | 0.883
318.15 K, 101 kPa, x1 = 0.5045 | 1.01
318.15 K, 101 kPa, x1 = 0.6384 | 1.227
318.15 K, 101 kPa, x1 = 0.7129 | 1.364
318.15 K, 101 kPa, x1 = 0.8283 | 1.628
318.15 K, 101 kPa, x1 = 0.904 | 1.802
323.15 K, 100 kPa, x2 = 0.0815 | 1.64
323.15 K, 100 kPa, x2 = 0.1623 | 1.49
323.15 K, 100 kPa, x2 = 0.2416 | 1.36
323.15 K, 100 kPa, x2 = 0.3481 | 1.2
323.15 K, 100 kPa, x2 = 0.4401 | 1.08
323.15 K, 100 kPa, x2 = 0.5592 | 0.94
323.15 K, 100 kPa, x2 = 0.6501 | 0.85
323.15 K, 100 kPa, x2 = 0.7414 | 0.77
323.15 K, 100 kPa, x2 = 0.8502 | 0.69
323.15 K, 100 kPa, x2 = 0.9414 | 0.63

O=[N+]([O-])c1ccccc1 + CCCC(C)O
viscosity [mPa·s], 100 kPa
Conditions | x1 = 0.081 | x1 = 0.1601 | x1 = 0.24 | x1 = 0.35 | x1 = 0.4401 | x1 = 0.56 | x1 = 0.6503 | x1 = 0.7402 | x1 = 0.8504 | x1 = 0.9404
293.15 K | 3.323 | 2.827 | 2.444 | 2.095 | 1.931 | 1.863 | 1.867 | 1.914 | 1.999 | 2.054
298.15 K | 2.753 | 2.364 | 2.068 | 1.809 | 1.697 | 1.67 | 1.684 | 1.738 | 1.821 | 1.878
303.15 K | 2.317 | 2.016 | 1.794 | 1.598 | 1.517 | 1.503 | 1.523 | 1.579 | 1.66 | 1.718
308.15 K | 1.993 | 1.776 | 1.608 | 1.454 | 1.385 | 1.36 | 1.377 | 1.421 | 1.497 | 1.568
313.15 K | 1.711 | 1.545 | 1.417 | 1.301 | 1.249 | 1.239 | 1.259 | 1.302 | 1.378 | 1.451
318.15 K | 1.497 | 1.375 | 1.28 | 1.188 | 1.148 | 1.135 | 1.15 | 1.188 | 1.26 | 1.338
323.15 K | 1.311 | 1.227 | 1.159 | 1.089 | 1.055 | 1.044 | 1.057 | 1.091 | 1.16 | 1.238
